US9187497B2, “Substituted pyrido[3,2-e]pyrrolo[1,2-a]pyrazines as inhibitors of poly(ADP-ribose)polymerase (PARP)” (Takeda Phamaceutical Company Limited, priority 2009, dated 2015)

How the values were obtained:
Jurkat cell line = assay: PARP cellular chemopotentiation assay (MTS cell viability with and without TMZ); format: cell-based; conditions: ratio of EC50 for inhibition of cell viability without and with 100 μM TMZ; Jurkat cells, 96 hours of treatment
Summary of the method: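 Jurkat cells, 10,000/well, pre-cultured 24 h, then treated 96 h with serial compound dilutions (0.5% DMSO) with or without 100 μM TMZ. Viability by MTS conversion (OD490), normalized to DMSO controls; EC50 from curve fits, PF50 = EC50 without TMZ / EC50 with TMZ.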

[1] = molecular target: T1, catalytic domain of Human PARP (Homo sapiens, UniProt P09874); assay: Biacore surface plasmon resonance affinity assay (dissociation constant KD); format: binding; conditions: pKD=-log(KD), KD in molar concentration; Biacore T100, 25° C.
T1 construct: The catalytic domain of Human PARP was cloned and prepared; made in house
T1 sequence (P09874 788-1014 limits assumed): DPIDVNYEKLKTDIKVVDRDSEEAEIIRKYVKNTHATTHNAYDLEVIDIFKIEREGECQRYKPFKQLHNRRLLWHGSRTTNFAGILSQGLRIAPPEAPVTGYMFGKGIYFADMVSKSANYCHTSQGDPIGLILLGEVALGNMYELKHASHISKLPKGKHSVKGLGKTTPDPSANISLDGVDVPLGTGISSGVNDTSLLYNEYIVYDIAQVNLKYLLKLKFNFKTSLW
Method: Dissociation Constant (KD) from Surface Plasmon Resonance
The catalytic domain of Human PARP was cloned and prepared as described in Kinoshita, T.; Nakanishi, I.; Warizaya, M.; Iwashita, A.; Kido, Y.; Hattori, K. and Fujii, T. 2006 FEBS Letters 556, 43-46. Purified enzyme was stored at −80° C. in 25 mM Tris(hydroxymethyl)aminomethane (Tris) pH 7.4, 150 mM NaCl, 2 mM dithiothreitol (DTT) at a concentration of 6 mg/ml.
Biacore affinity assays for test compounds were conducted on a Biacore T100 (GE Healthcare) as follows. A Series S Sensor Chip CM5 (part number BR-1006-68, GE Healthcare) was activated for amide coupling with an Amine Coupling Kit (part number BR-1000-50, GE Healthcare) as described by the manufacturer. The mobile phase buffer consisted of Biacore buffer HBS-P (part number BR-1003-68, GE Healthcare) supplemented with 1% v/v dimethylsulfoxide (DMSO), 0.5 mM Tris(2-carboxyethyl)phosphine hydrochloride (TCEP), and 5 mM MgCl2. Enzyme samples (2 μl/6 mg/ml) stored at −80° C. were diluted to 0.080 mg/ml with 10 mM 4-morpholineethanesulfonic acid (MES) pH 6.5 and then mounted on the activated Biacore CM5 chip at a flow rate of 10 μl/min for 240 seconds. When successfully mounted, a signal of approximately 8,000 reflective units was observed. Test compounds were diluted 9 times 2-fold serially in mobile phase buffer (listed above) at 1% v/v DMSO final to generate a concentration gradient bracketing their anticipated KDs. Biacore mounted PARP was given a 1 minute exposure (association phase) to various concentrations of test compounds to observe a steady state equilibrium or an on rate. The exposure was followed with a dissociation phase of 5 minutes. The association and dissociation phases were at a flow rate of 50 μl/min and a temperature of 25° C.
Parameters Rmax (response at saturation) and KD (binding constant) were calculated through a nonlinear least squares fitting of the equation to the data by use of the Biacore T100 analysis software.
Parameter optimization was through a nonlinear least squares analysis of the association phase Response=Rmax*(1−exp(−(kon[cmpd]+koff)*t)) and dissociation phase Response=[…] by use of the Biacore T100 analysis software. The binding constant KD was calculated from the definition KD=koff/kon

PARP = molecular target: T2, PARP (Homo sapiens, UniProt P09874); assay: PARP ELISA colorimetric assay of inhibition of PARP catalytic activity (IC50); format: biochemical; conditions: pIC50=-log(IC50), IC50 in molar concentration; ELISA-based PARP kit, 10 minutes of catalysis
T2 construct: purchased Trevigen 4684-096-01 (enzyme); kit 4684-096-K HT
T2 sequence (P09874 whole entry): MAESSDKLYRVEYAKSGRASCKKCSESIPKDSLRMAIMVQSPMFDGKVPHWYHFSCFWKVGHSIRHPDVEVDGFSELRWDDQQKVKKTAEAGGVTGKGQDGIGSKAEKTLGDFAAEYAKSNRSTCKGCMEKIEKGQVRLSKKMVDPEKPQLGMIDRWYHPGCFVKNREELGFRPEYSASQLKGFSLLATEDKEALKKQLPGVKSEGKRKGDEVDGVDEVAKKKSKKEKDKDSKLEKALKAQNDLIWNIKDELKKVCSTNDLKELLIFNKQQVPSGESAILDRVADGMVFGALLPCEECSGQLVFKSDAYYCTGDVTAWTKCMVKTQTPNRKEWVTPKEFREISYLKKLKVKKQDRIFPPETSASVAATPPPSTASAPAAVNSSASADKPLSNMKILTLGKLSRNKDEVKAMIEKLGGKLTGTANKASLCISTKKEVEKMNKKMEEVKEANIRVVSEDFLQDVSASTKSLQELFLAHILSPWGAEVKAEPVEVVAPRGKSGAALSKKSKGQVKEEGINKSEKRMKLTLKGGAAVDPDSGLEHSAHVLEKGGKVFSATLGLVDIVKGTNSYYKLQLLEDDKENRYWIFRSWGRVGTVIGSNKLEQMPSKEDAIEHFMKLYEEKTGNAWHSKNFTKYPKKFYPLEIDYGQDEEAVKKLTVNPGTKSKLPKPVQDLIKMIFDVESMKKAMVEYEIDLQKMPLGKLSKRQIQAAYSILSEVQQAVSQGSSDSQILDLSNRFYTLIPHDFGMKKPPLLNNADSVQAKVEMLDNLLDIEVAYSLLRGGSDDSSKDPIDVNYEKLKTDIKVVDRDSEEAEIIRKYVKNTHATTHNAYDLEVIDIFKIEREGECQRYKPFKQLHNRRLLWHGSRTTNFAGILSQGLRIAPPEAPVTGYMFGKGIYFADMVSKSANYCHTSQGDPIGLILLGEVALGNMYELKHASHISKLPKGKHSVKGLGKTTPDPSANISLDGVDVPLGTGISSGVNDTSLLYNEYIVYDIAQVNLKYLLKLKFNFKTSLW
Summary of the method: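 Human PARP was added as a 0.1 nM solution to histone-coated wells with compound for a 10-min ambient preincubation. The reaction was started with 100 μM NAD+ solution plus activated DNA and run 10 min. PAR formation was detected by anti-PAR ELISA, colorimetric. IC50 came from a 12-point, 3-fold gradient fitted by nonlinear least squares to a Hill equation.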

Compound	melting point [°C]	Kd [1] [µM]	IC50 (PARP) [µM]	PF50 (Jurkat cell line)
N#Cc1ccc(N2CCN(Cc3cnc4c(c3)NC(=O)[C@@H]3CCCN43)CC2)c(F)c1 [Compound 14, (S)-3-fluoro-4-(4-((6-oxo-5,6,6a,7,8,9-hexahydropyrido[3,2-e]pyrrolo[1,2-a]pyrazin-3-yl)methyl)piperazin-1-yl)benzonitrile]	226	–	–	>500
N#Cc1ccc(N2CCN(Cc3cnc4c(c3)NC(=O)[C@@H]3CCCN43)CC2)c(Cl)c1 [Compound 16, (S)-3-chloro-4-(4-((6-oxo-5,6,6a,7,8,9-hexahydropyrido[3,2-e]pyrrolo[1,2-a]pyrazin-3-yl)methyl)piperazin-1-yl)benzonitrile]	213 to 215	–	–	>500
N#Cc1cc(F)c(N2CCN(Cc3cnc4c(c3)NC(=O)[C@@H]3CCCN43)CC2)cc1F [Compound 17, (S)-2,5-difluoro-4-(4-((6-oxo-5,6,6a,7,8,9-hexahydropyrido[3,2-e]pyrrolo[1,2-a]pyrazin-3-yl)methyl)piperazin-1-yl)benzonitrile]	224 to 227	–	–	>2000
C[C@H]1C(=O)Nc2cc(CN3CC=C(c4ccccc4)CC3)cnc2N1C [Compound 57, (S)-3,4-dimethyl-7-((4-phenyl-5,6-dihydropyridin-1(2H)-yl)methyl)-3,4-dihydropyrido[3,2-b]pyrazin-2(1H)-one]	–	< 0.0316	–	≧0
CCN1c2ncc(CN3CC=C(c4ccc(Cl)cc4)CC3)cc2NC(=O)[C@@H]1C [Compound 63, (S)-7-((4-(4-chlorophenyl)-5,6-dihydropyridin-1(2H)-yl)methyl)-4-ethyl-3-methyl-3,4-dihydropyrido[3,2-b]pyrazin-2(1H)-one]	–	0.0316 to 0.794	–	≧0
O=C1Nc2cc(CN3CC=C(c4ccc(Cl)cc4)CC3)cnc2N2CCCCC12 (stereo not drawn) [Compound 65, 3-((4-(4-chlorophenyl)-5,6-dihydropyridin-1(2H)-yl)methyl)-7,8,9,10-tetrahydro-5H-dipyrido[1,2-a:3′,2′-e]pyrazin-6(6aH)-one]	–	≥ 1	≤ 0.0126	>10
O=C1Nc2cc(CN3CCC(c4ccc(Cl)cc4)CC3)cnc2N2CCCCC12 (stereo not drawn) [Compound 67, 3-((4-(4-chlorophenyl)piperidin-1-yl)methyl)-7,8,9,10-tetrahydro-5H-dipyrido[1,2-a:3′,2′-e]pyrazin-6(6aH)-one]	–	< 0.0316	0.0158 to 0.0398	≧0
CN1CC(=O)Nc2cc(CN3CC=C(c4ccc(Cl)cc4)CC3)cnc21 [Compound 80, 7-((4-(4-chlorophenyl)-5,6-dihydropyridin-1(2H)-yl)methyl)-4-methyl-3,4-dihydropyrido[2,3-b]pyrazin-2(1H)-one]	–	< 0.0316	≥ 0.0501	≧0
O=C1CN(Cc2ccccc2)c2ncc(CN3CC=C(c4ccc(Cl)cc4)CC3)cc2N1 [Compound 83, 4-benzyl-7-((4-(4-chlorophenyl)-5,6-dihydropyridin-1(2H)-yl)methyl)-3,4-dihydropyrido[2,3-b]pyrazin-2(1H)-one]	–	≥ 1	0.0158 to 0.0398	≧0
O=C1CN(Cc2ccccc2)c2ncc(CN3CCC(c4ccc(Cl)cc4)CC3)cc2N1 [Compound 85, 4-benzyl-7-((4-(4-chlorophenyl)piperidin-1-yl)methyl)-3,4-dihydropyrido[2,3-b]pyrazin-2(1H)-one]	–	0.0316 to 0.794	0.0158 to 0.0398	≧0
O=C1Nc2cc(CN3CC=C(c4ccc(Cl)cc4)CC3)cnc2N2CCSCC12 (stereo not drawn) [Compound 86, 3-((4-(4-chlorophenyl)-5,6-dihydropyridin-1(2H)-yl)methyl)-6a,7,9,10-tetrahydropyrido[3,2-e][1,4]thiazino[4,3-a]pyrazin-6(5H)-one]	–	< 0.0316	0.0158 to 0.0398	>500

Continued, in another order:

melting point [°C]	Kd [1] [µM]	IC50 (PARP) [µM]	Compound	PF50 (Jurkat cell line)
265 to 268	–	–	O=C1Nc2cc(CN3CCN(c4ccc(Cl)cc4)CC3)cnc2N2CCC[C@@H]12 [Compound 1, (S)-3-((4-(4-chlorophenyl)piperazin-1-yl)methyl)-6a,7,8,9-tetrahydropyrido[3,2-e]pyrrolo[1,2-a]pyrazin-6(5H)-one]	>500
–	< 0.0316	≤ 0.0126	CCNC(=O)c1ccc(N2CCN(Cc3cnc4c(c3)NC(=O)[C@@H]3CCCN43)CC2)cc1 [Compound 10, (S)—N-ethyl-4-(4-((6-oxo-5,6,6a,7,8,9-hexahydropyrido[3,2-e]pyrrolo[1,2-a]pyrazin-3-yl)methyl)piperazin-1-yl)benzamide]	>5000
251 to 255	–	–	N#Cc1ccc(N2CCN(Cc3cnc4c(c3)NC(=O)[C@@H]3CCCN43)CC2)cc1F [Compound 21, (S)-2-fluoro-4-(4-((6-oxo-5,6,6a,7,8,9-hexahydropyrido[3,2-e]pyrrolo[1,2-a]pyrazin-3-yl)methyl)piperazin-1-yl)benzonitrile]	>2000
–	0.0316 to 0.794	≥ 0.0501	C[C@H]1C(=O)Nc2cc(CN3CCC(c4ccc(Cl)cc4)CC3)cnc2N1C [Compound 53, (S)-7-((4-(4-chlorophenyl)piperidin-1-yl)methyl)-3,4-dimethyl-3,4-dihydropyrido[3,2-b]pyrazin-2(1H)-one]	≧0
–	< 0.0316	–	C[C@H]1C(=O)Nc2cc(CN3CCN(c4ccc(Cl)cc4)CC3)cnc2N1C [Compound 59, (S)-7-((4-(4-chlorophenyl)piperazin-1-yl)methyl)-3,4-dimethyl-3,4-dihydropyrido[3,2-b]pyrazin-2(1H)-one]	≧0
–	≥ 1	0.0158 to 0.0398	O=C1Nc2cc(CN3CCN(c4ccc(Cl)cc4)CC3)cnc2N2CCCCC12 (stereo not drawn) [Compound 66, 3-((4-(4-chlorophenyl)piperazin-1-yl)methyl)-7,8,9,10-tetrahydro-5H-dipyrido[1,2-a:3′,2′-e]pyrazin-6(6aH)-one]	>10
–	0.0316 to 0.794	≥ 0.0501	CN1CC(=O)Nc2cc(CN3CCN(c4ccc(Cl)cc4)CC3)cnc21 [Compound 81, 7-((4-(4-chlorophenyl)piperazin-1-yl)methyl)-4-methyl-3,4-dihydropyrido[2,3-b]pyrazin-2(1H)-one]	≧0
–	0.0316 to 0.794	≥ 0.0501	CN1CC(=O)Nc2cc(CN3CCC(c4ccc(Cl)cc4)CC3)cnc21 [Compound 82, 7-((4-(4-chlorophenyl)piperidin-1-yl)methyl)-4-methyl-3,4-dihydropyrido[2,3-b]pyrazin-2(1H)-one]	≧0
–	0.0316 to 0.794	≤ 0.0126	O=C1CN(Cc2ccccc2)c2ncc(CN3CCN(c4ccc(Cl)cc4)CC3)cc2N1 [Compound 84, 4-benzyl-7-((4-(4-chlorophenyl)piperazin-1-yl)methyl)-3,4-dihydropyrido[2,3-b]pyrazin-2(1H)-one]	≧0
–	< 0.0316	≤ 0.0126	O=C1Nc2cc(CN3CCC(c4ccc(Cl)cc4)CC3)cnc2N2CCSCC12 (stereo not drawn) [Compound 88, 3-((4-(4-chlorophenyl)piperidin-1-yl)methyl)-6a,7,9,10-tetrahydropyrido[3,2-e][1,4]thiazino[4,3-a]pyrazin-6(5H)-one]	≧0
288.9	–	–	CCNC(=O)c1ccc(N2CCN(Cc3cnc4c(c3)NC(=O)[C@@H]3CSCCN43)CC2)cc1 [Compound 92, (R)—N-ethyl-4-(4-((6-oxo-5,6,6a,7,9,10-hexahydropyrido[3,2-e][1,4]thiazino[4,3-a]pyrazin-3-yl)methyl)piperazin-1-yl)benzamide]	>5000
